Test: Gastric model: incubation in simulated gastric fluid (SGF), LOOH (FOX assay) and MDA, oxidation resistance score
Type: physicochemical
Conditions: conventional krill oil with high TMAO, three concentrations of Astaxanthin (increased more than 10 fold), 180 minutes
Procedure: Hydroperoxide level was tested by FOX analysis. Measurements were conducted at 562 nm, the absorbance of the Ferric-Xylenol Orange Complex. (Gay 1999).
Malondialdehyde (MDA) level was tested by modified TBARS test. The thiobarbituric acid-MDA adduct was quantified by HPLC (Fenaille 2001) or spectrophotometer.
Marine lecithin preparations according to the invention and conventional marine lecithins were incubated while shaken in simulated gastric fluid (SGF) which contains 2 mg/ml NaCl, 3.2 mg/ml HCl 37%, and 7 mg/ml Pepsine and with 200 μM Ascorbic acid and 50 μM FeCl3 as oxidation catalysts, at 37° C. for 180 min. The final concentration of the oils was 10 mg/ml. Peroxidation markers hydroperoxide (LOOH, by Ferric-Xylenol Orange Complex—FOX assay) and malondialdehyde (MDA-TBA2 HPLC analysis) were analyzed following 180 minutes of incubation in the gastric model.
In order to rank the oils according to their resistance to oxidation in gastric model, a score scale was developed. […]
Conventional krill oil, containing high concentration of TMAO, was enriched with three concentrations of Astaxanthin and incubated in simulated gastric fluid (SGF) as described in Example 3. Hydroperoxide as peroxidation marker (LOOH, by Ferric-Xylenol Orange Complex—FOX assay—see method above) was analyzed following 180 minutes. […]

change in LOOH levels by Astaxanthin enrichment: only minimal change in LOOH levels
Compound: CC1=C(/C=C/C(C)=C/C=C/C(C)=C/C=C/C=C(C)/C=C/C=C(C)/C=C/C2=C(C)C(=O)[C@@H](O)CC2(C)C)C(C)(C)C[C@H](O)C1=O [Astaxanthin]
